Assay results reported in article PMC11435625, “In Vitro Hepatic Clearance Evaluations of Per- and Polyfluoroalkyl Substances (PFAS) across Multiple Structural Categories” (Toxics, 2024).

How the values were obtained:
[1] = test system: pooled primary human hepatocyte suspensions; experiment: Hepatic clearance assay (substrate depletion, LC-MS); details: in µL/min/10^6 cells; for CLint for HTTK: CLint value carried into HTTK/IVIVE; for in vitro CLint exp assay / Unadj Clint: pooled primary human hepatocyte suspensions; for Unadj Clint: unadjusted hepatic intrinsic clearance, Table S4
Description: The rate of hepatic clearance was determined as previously described for a set of PFAS [11]. Analysis was conducted across two laboratories at the Division of Translational Toxicology (DTT) at the National Institute of Environmental Health Sciences (NIEHS) and the Center for Computational Toxicology and Exposure at the USEPA. The PFAS analyzed in each lab can be found in the Supplementary Materials.
The hepatic clearance assay was performed at both the DTT and EPA laboratories as described below. The pooled human hepatocyte suspensions used in this work were purchased commercially and meet the ethical and scientific standards described in the Human Ethics Rule (40 CFR 26). The suspensions were prepared from hepatocytes obtained from de-identified donors by a commercial vendor.
PFAS stock solutions prepared in DMSO were added to prewarmed William’s E medium to make a 2X working stock solution (2 µM). […] The working stock solutions were then transferred to a 96-well polypropylene plate and placed in an incubator at 37 °C with 5% carbon dioxide prior to adding cells. Cryopreserved pooled primary human hepatocyte suspensions (50-donor pool, mixed gender; BioIVT; Westbury, NY, USA) were thawed and transferred to vials containing hepatocyte thawing medium. After centrifuging for 5–10 min at 100× g, thawing medium was removed, being careful not to disturb the cell pellet. The primary human hepatocytes were then resuspended in pre-warmed complete Williams E medium to achieve a cell density of ~1.0 × 10^6 viable cells/mL as determined by Trypan Blue exclusion. Cells were then added to the 96-well incubation plates containing PFAS to achieve a final density of ~0.5 × 10^6 viable cells/mL and a 1 μM assay concentration (Ctest), then placed in incubator on a shaker at 300 rpm. Triplicate samples were removed from the incubator at time points ranging from 0 to 240 min and quenched with a total crash in 2–3 volumes of ice-cold acetonitrile. Samples were spun at 4000× g for 20 min, and supernatants were transferred to new tubes and stored at <−70 °C until analysis. Media-only (no cell) and/or heat-inactivated hepatocytes were included as negative controls for each chemical to evaluate and estimate chemical loss due to nonmetabolic processes (e.g., hydrolysis). Phenacetin was included in all runs as an assay reference compound; EPA also included propranolol as an additional reference compound.
Assay samples were diluted in mobile phase and analyzed using a Thermo Vanquish UPLC system with a Thermo Hypersil Gold aQ C18 column (100 × 2.1 mm, 1.9 […], Thermo Fisher Scientific Inc.) coupled to a Q Exactive Plus mass spectrometer. Gradient elution was used in the chromatographic separations using water with 20 mM ammonium acetate (mobile phase A) and methanol (mobile phase B), with the following gradient program: 0.5–7 min, 30%–90% B; 7–8 min, 90% B; 8–9 min, 90%–30% B; and 9–10 min, 30% B. The first minute of each injection was diverted to waste to avoid introduction of excessive salts from incubation medium. Analysis was detected in negative ion mode. Samples were quantified against an external, matrix-matched calibration curve. Additional methodologic information is available in Table S2.
To perform SPE, a positive-pressure manifold was employed along with Oasis WAX µElution plates and Oasis HLB 30 mg plates (Waters, Milford, MA, USA) for PFAS and positive-control extraction, respectively. […] The sorbent was then washed with 1% formic acid and water. Samples were eluted in 2% ammonia in methanol for analysis. Similarly, HLB plates were conditioned with methanol and water before sample was loaded onto the sorbent. The wells were then washed with 5% methanol in water and water before elution in methanol. For samples not undergoing SPE, the supernatant of the crashed assay sample was diluted in mobile phase prior to analysis. The first 1.5 min of the run was diverted to waste to prevent salt contamination.

[2] = IVIVE: steady-state concentration (Css), generic HTTK model; set-up: species or system human; details: for Css (mg/L) / Css (uM): Assuming 1 mg/kg/day dose rate, BW 70 kg; for CLhep: QL 1500000 uL/min; for Fub: fub=fup/(B:P), Fub set to 1 if needed; for CLint: scaled to whole liver: HPGL 110 mill cells/g, Vl 1596 g
Description: IVIVE was performed as previously described to calculate human steady-state concentrations (Css). Briefly, experimental plasma protein binding data presented elsewhere were transformed to fraction unbound in blood using blood-to-plasma partitioning values. Experimental Clint values generated here are used in conjunction with relevant liver scalars to scale up to estimate whole liver clearance. […] Once Css values were established, these were used with the PFAS-specific in vitro POD data to calculate the administered equivalent doses (AEDs) using reverse dosimetry. […] The fifth-percentile AC50 value was used to define the in vitro POD. All relevant inputs, scalars, and calculations are provided in Supplementary Information, as indicated in the results.

[3] = test system: plasma protein; details: fraction unbound in plasma, input for IVIVE calculations; cited from earlier work

Row | SMILES | CLint for HTTK [1] | in vitro CLint exp assay [1] | Css (mg/L) [2] [mg/L] | Css (uM) [2] [µM] | CLhep [2] [L/h] | Fub [2] | CLint [2] [µL/min] | Mean fu [3] | Unadj Clint [1]
1 | O=C(O)CCC(F)(F)C(F)(F)C(F)(F)F | 0 | 0 | 4.66 | 19.25 | 0.000 | 0.09418 | 0 | 0.0518 | 
2 | O=C(Cl)C(F)(F)C(F)(F)C(F)(F)C(F)(F)C(F)(F)C(F)(F)C(F)(F)F | 0 | 0 | 3584.17 | 8297.84 | 0.000 | 0.0001224 | 0 | 0.0001 | 
3 | O=S(=O)(Cl)C(F)(F)C(F)(F)C(F)(F)C(F)(F)C(F)(F)C(F)(F)C(F)(F)C(F)(F)F | 0 | 0.00 | 41.78 | 80.68 | 0.000 | 0.0105 | 0 | 0.0109 | 
4 | O=C(O)C(F)(F)C(F)(F)OC(F)(F)F | 0 | 0 | 3.16 | 13.74 | 0.000 | 0.1389 | 0 | 0.0764 | 
5 | O=C(O)C(F)(F)C(F)(F)C(F)(F)OC(F)(C(F)(F)F)C(F)(F)F | 5.78 | 5.78 | 11.42 | 30.05 | 0.232 | 0.003818 | 1014737 | 0.0021 | 
6 | O=C(O)C(F)(F)C(F)(F)C(F)(F)OC(F)(F)F | 1.5 | 1.5 | 6.16 | 22.00 | 0.335 | 0.02127 | 263340 | 0.0117 | 
7 | C[N+](C)(C)CCCNS(=O)(=O)C(F)(F)C(F)(F)C(F)(F)C(F)(F)C(F)(F)C(F)(F)C(F)(F)C(F)(F)F.[I-] | 0 | 0 | 19.15 | 31.97 | 0.000 | 0.02291 | 0 | 0.0126 | 4.28
8 | O=S(=O)([O-])C(F)(F)C(F)(F)C(F)(F)C(F)(F)C(F)(F)C(F)(F)F.[K+] | 0 | 0 | 241.34 | 603.44 | 0.000 | 0.001818 | 0 | 0.001 | 
9 | O=S(=O)([O-])C(F)(F)C(F)(F)C(F)(F)C(F)(F)C(F)(F)C(F)(F)C(F)(F)C(F)(F)F.[K+] | 0 | 2.96 | 60.34 | 120.69 | 0.000 | 0.007273 | 0 | 0.004 | 
10 | O=C(O)C(F)(F)C(F)(F)C(F)F [4H-Perfluorobutanoic acid] |  |  |  |  |  |  |  |  | 0.90
11 | O=C(O)CCC(F)(F)C(F)(F)C(F)(F)C(F)(F)C(F)(F)C(F)(F)F [6:3 Fluorotelomer carboxylic acid] |  |  |  |  |  |  |  |  | 5.05
12 | N.O=C(O)C(F)(F)C(F)(F)C(F)(F)C(F)(F)C(F)(F)C(F)(F)C(F)(F)F [Ammonium perfluorooctanoate] |  |  |  |  |  |  |  |  | 2.06
13 | O=C(O)C(F)(F)C(F)(F)C(F)(F)OC(F)(F)F [Perfluoro(4-methoxybutanoic) acid] |  |  |  |  |  |  |  |  | 1.50
14 | O=S(=O)(Cl)C(F)(F)C(F)(F)C(F)(F)C(F)(F)C(F)(F)C(F)(F)C(F)(F)C(F)(F)F [Perfluoro-1-octanesulfonyl chloride] |  |  |  |  |  |  |  |  | 0.00
15 | O=C(O)C(F)(F)OC(F)(F)C(F)(F)OC(F)(F)F [Perfluoro-3,6-dioxaheptanoic acid] |  |  |  |  |  |  |  |  | 0.00
16 | O=C(O)C(F)(F)C(F)(F)C(F)(F)F [Perfluorobutanoic acid] |  |  |  |  |  |  |  |  | 0.08
17 | O=C(O)C(F)(F)C(F)(F)F [Perfluoropropanoic acid] |  |  |  |  |  |  |  |  | 0.59
18 | O=C(O)C(F)(F)C(F)(F)C(F)(F)C(F)(F)C(F)(F)C(F)(F)C(F)(F)C(F)(F)C(F)(F)C(F)(F)C(F)(F)C(F)(F)C(F)(F)F [Perfluorotetradecanoic acid] |  |  |  |  |  |  |  |  | 0.00
19 | O=C(O)C(F)(F)C(F)(F)C(F)(F)C(F)(F)C(F)(F)C(F)(F)C(F)(F)C(F)(F)C(F)(F)C(F)(F)F [Perfluoroundecanoic acid] |  |  |  |  |  |  |  |  | 0.00
20 | O=S(=O)([O-])C(F)(F)C(F)(F)C(F)(F)C(F)(F)F.[K+] [Potassium perfluorobutanesulfonate] |  |  |  |  |  |  |  |  | 0.00
21 | O=S(=O)([O-])C(F)(F)C(F)(F)C(F)(F)C(F)(F)C(F)(F)C(F)(F)C(F)(F)C(F)(F)F.[K+] [Potassium perfluorooctanesulfonate] |  |  |  |  |  |  |  |  | 2.96
22 | O=C([O-])C(F)(F)C(F)(F)C(F)(F)C(F)(F)C(F)(F)C(F)(F)C(F)(F)F.[K+] [Potassium perfluorooctanoate] |  |  |  |  |  |  |  |  | 0.00
23 | O=S(=O)([O-])C(F)(F)C(F)(F)C(F)(F)C(F)(F)C(F)(F)C(F)(F)C(F)(F)C(F)(F)C(F)(F)C(F)(F)F.[Na+] [Sodium perfluorodecanesulfonate] |  |  |  |  |  |  |  |  | 3.39
24 | O=C(O)C(F)(F)C(F)(F)C(F)(F)C(F)(F)C(F)(F)C(F)(F)C(F)(F)F [Sodium perfluorooctanoate] |  |  |  |  |  |  |  |  | 2.34
